One series deals with anesthetized rats. The series is described as follows: Hypotensive activity by intravenous administration in anesthetized rats (Example 23). Type of series: in vivo, Male Wistar rats. Conditions: for ED20: Rattus norvegicus, iv, anesthetized Wistar rats about 250 g, read-out: ED20 (dose decreasing mean blood pressure by 20%); for Duration T1/2 (half-life of hypotensive action): i.v., dose 10. The method, then:
(§1) Male Wistar rats weighing about 250 g were used. They were anesthetized with urethane (500 mg/kg) and α-chloralose (100 mg/kg) intraperitoneal injection.
(§2) The test compound was dissolved in a small quantity of ethanol and the solution, which was then diluted with physiological saline to have a final concentration of ethanol kept at 5% or lower, was intravenously injected through a catheter inserted into the femoral vein.
(§3) The blood pressure was recorded with the pressure transducer via the catheter inserted into the common carotid artery of the rats.
(§4) Hypotensive activity of the test compound was indicated by the dose (ED20 μ/kg) required for decreasing the mean blood pressure by 20% as compared with the mean blood pressure before the administration.
(§5) To determine the duration of the hypotensive action of the test compound, half-life of hypotensive action T^1 /2) was measured.

Series [1] in a line: Light stability in methanol solution. Type of series: physicochemical. The method, then: 1 mg of compound (156) hydrochloride was dissolved in 100 ml of methanol. The solution was placed in a transparent glass test tube, and after the test tube was tightly stoppered, it was allowed to stand by the window of the laboratory. Part of the solution was taken at regular intervals and subjected to high performance liquid chromatograph to determined the remaining quantity of compound (156) hydrochloride contained in the solution. The same experiment was conducted with nicardipine hydrochloride as the control.

For another series, the system named is anesthetized rat. Kind of series: Hypotensive activity by intravenous administration in anesthetized rat (Example 27). The class given is in vivo, Male Wistar rats. Conditions: for ED20: Rattus norvegicus, iv, anesthetized Wistar rats about 300 g, read-out: ED20 (dose decreasing mean blood pressure by 20%); for Duration T1/2: i.v. The method, then:
as §1, §2, §3, §4, §5
Male Wistar rats weighing about 300 g were used. The measurement of hypotensive activity was conducted according to the same method as Example 23.

A further series deals with platelet aggregation. Kind of series: In vitro inhibitory activity of platelet aggregation. The class given is cell-based, male Hartley guinea pigs. Conditions: Cavia porcellus, Platelet; Conc. 100 μM, AA 75 μM. The method, then:
The in vitro platelet aggregation inhibiting activities of the compounds of the invention were examined by using guinea pigs. Blood was withdrawn by cardiac puncture from male Hartley guinea pigs weighing […]. A mixture of a 3.8% trisodium citrate solution and the blood in a ratio of 1:9 was centrifuged at a speed of 800 rpm for 10 minutes. The upper layer was separated as platelet-rich plasma (PRP). The lower layer was further centrifuged at a separated as platelet-poor plasma (PPP). The number of platelets was adjusted to 5×10^5 /μl to 6×10^5 /μl by filuting the PRP with PPP. 25 microliters of the test compounds prepared as shown below was added in an amount of 25 microliters of PRP after the adjustment, and the mixture was pre-incubated at 37° C. for 2 minutes, and then 75 μM (final) of AA was added. By using an aggregometer (37° C., 1,100 rpm), changes in transmission were recorded.
The test compound was dissolved in ethanol to a concentration of 10 mg/ml. When its activity was measured, it was used after being diluted with phosphate buffer (pH 7.4). Furthermore, after dilution with the buffer, the test compound was left to stand at 0° C. for 4 hours, and the activity of the test compound was similarly measured.
The rate of inhibition of platelet aggregation was determined from the following equation. [formula]

In series [2] the test system is SHR (Spontaneously Hypertensive Rats). Kind of series: Antihypertensive activity in SHR. The class given is in vivo, Male SHR (Spontaneously Hypertensive Rats). Conditions: no anesthesia. The method, then:
Male SHR (14 to 16 weeks old) fasted for more than 16 hours were used. […] When one hour or more passed after the rats woke up out of the ether, they were administered the test compound orally. The blood pressure was measured with the pressure transducer via the catheter inserted into the femoral artery.
The test compound was dissolved in a small quantity of ethanol and diluted with water to be adjusted for administration.
Changes in the mean blood pressure were obtained from the equation mentioned below. The Basic and Clinical Study, vol. 14, p. 4495 (1980) is a useful literature to be referred to for making this kind of experiment. [formula]

The test system of series [3] is peripheral blood vessels (femoral artery). The series is described as follows: Action on peripheral blood vessels (femoral blood flow) in anesthetized dog. The class given is in vivo, male beagle dog. Conditions: 3 μg/kg i.v. The method, then:
(§6) A male beagle dog weighing about 10 kg was anesthetized with sodium pentobarbital (35 mg/kg i.v.). The test compound was dissolved in a small quantity of ethanol, diluted with an isotonic sodium chloride solution, and was injected into the right femoral vein.
The carotic blood flow (CBF) and the femoral blood flow (FBF) were measured with the electromagnetic blood flowmeter (MFV-1200 made by Japan Photoelectric Co., Ltd.) via probe for measuring the blood flow volume set in the right common carotid artery and the left femoral artery of the male beagle dog respectively.

In a further series the test system is mean blood pressure. Kind of series: Action on mean blood pressure in anesthetized dog. Type of series: in vivo, male beagle dog. Conditions: 10 μg/kg i.v. Here is the method:
as §6
The mean blood pressure (MBP) was measured with the pressure transwer via the cannula inserted into the right femoral artery of the male beagle dog. The changes in the blood pressure after the administration of the test compound are shown in percentages in Table 5.

A further series relates to rats periphery. The series is described as follows: Vasodilative activity in rats periphery (constant volume blood perfusion). Type of series: in vivo, Male SD strain rats. Here is the method:
Male SD strain rats, weighing 350 g to 450 g, were used. They were anesthetized with sodium pentobarbital 60 mg/kg i.p. […] The solution of the test compound was infused into the perfusion blood on the peripheral side with a perfusion pump, and changes in perfusion pressure were measured. The activity of the test compound was determined as the ratio of the relative activity of the test compound against papaverine obtained from the dose-response curves.

The next series concerns conscious rats. Kind of series: Antihypertensive activity by oral administration in conscious rats. Type of series: in vivo, Male Wistar rats. Particulars: 10 mg/kg oral. Here is the method:
When one hour or more passed after the rats were aroused, they were administered the test compound orally.
The blood pressure in the femoral artery was recorder and changes in the mean blood pressure were obtained from the following equation. [formula]

Consider 8 compounds from patent US4578395A, “Certain aralkylaminoalkyl esters of 1,4 dihydropyridines as antihypertensive” (Teijin Limited, priority 1983, dated 1986).

Counter-ions that a name gives are not always drawn. Bounds are passed on as bounds.

Regarding `COC(=O)C1=C(C)NC(C)=C(C(=O)OCC(C)(C)CN(C)Cc2ccccc2)C1c1cccc([N+](=O)[O-])c1` (stereo not drawn) [(302) hydrochloride, 3-(N-Benzyl-N-methylamino)-2,2-dimethylpropyl methyl 2,6-dimethyl-4-(3-nitrophenyl)-1,4-dihydropyridine-3,5-dicarboxylate], in the series with anesthetized rats, the ED20 came out at 0.0091 mg/kg and the “Duration T1/2 (half-life of hypotensive action)” value is greater than 30 min.

As usually defined, the amount remaining is what is left of the initial amount, in per cent. In general, inhibition refers to the change of the read-out against control, counted positive when it falls. As to `COC(=O)C1=C(C)NC(C)=C(C(=O)OCC(C)(C)CN(C)Cc2ccccc2)C1c1cccc(Cl)c1F` (stereo not drawn) [(156) hydrochloride, 3-(N-Benzyl-N-methylamino)-2,2-dimethylpropyl methyl 2,6-dimethyl-4-(3-chloro-2-fluorophenyl)-1,4-dihydropyridine-3,5-dicarboxylate], the “light stability compared with nicardipine hydrochloride” value in [1] was “better light stability than nicardipine hydrochloride”. For the same compound, the fraction remaining at 2 h in series [1] (light, 2 hr., read-out: Remaining percentage) was 100%. In [1] (light, 4 hr., read-out: Remaining percentage), the share remaining at 4 h is 99%. The share remaining at 6 h in [1] (light, 6 hr., read-out: Remaining percentage) was 100%. The figures for the ED20 in the series on anesthetized rat and in the series on anesthetized rats were 0.0245 mg/kg and 0.0149 mg/kg, respectively. The “Duration T1/2” value in the series on anesthetized rat (dose 30) is 8.5 min. Further, in the series with anesthetized rats, the “Duration T1/2 (half-life of hypotensive action)” value is 20 min. The inhibition at 100 µM with platelet aggregation is -1.9 ± 2.5%. For the same compound, the “Changes in MBP” value in [2] (3 mg/kg oral, 30 min.) was -41 ± 8 mmHg; in [2] (3 mg/kg oral, 60 min.) it was -39 ± 7 mmHg; in series [2] (3 mg/kg oral, 90 min.) it was -35 ± 5 mmHg; in series [2] (3 mg/kg oral, 2 hr.) it was -28 ± 6 mmHg; in series [2] (3 mg/kg oral, 3 hr.) it was -28 ± 6 mmHg; in series [2] (3 mg/kg oral, 5 hr.), -18 mmHg. Besides, in series [2] (3 mg/kg oral, 7 hr.), the “Changes in MBP” value is -20 ± 4 mmHg. The “Changes in FBF” value in series [3] (0.5 min.) is on record as 0 ± 0%; in series [3] (1 min.), -1 ± 3%; in [3] (2 min.), “+5 ± 5%”; in series [3] (5 min.), “+19 ± 5%”; in [3] (10 min.), “+20 ± 10%”.

Take `COC(=O)C1=C(C)NC(C)=C(C(=O)OCC(C)(C)CN(C)C)C1c1cccc([N+](=O)[O-])c1Cl` (stereo not drawn) [reference compound]: the ED20 in the series with anesthetized rat is 0.288 mg/kg. The “Duration T1/2” value with anesthetized rat (dose 300) came to 3.5 min.

`COC(=O)C1=C(C)NC(C)=C(C(=O)OCC(C)(C)CN(C)Cc2ccccc2)C1c1cccc([N+](=O)[O-])c1F` (stereo not drawn) [(130) hydrochloride, 3-(N-Benzyl-N-methylamino)-2,2-dimethylpropyl methyl 2,6-dimethyl-4-(2-fluoro-3-nitrophenyl)-1,4-dihydropyridine-3,5-dicarboxylate]: the ED20 with anesthetized rat is 0.0147 mg/kg; in the series with anesthetized rats it was 0.016 mg/kg. Moreover, the “Duration T1/2” value with anesthetized rat (dose 10) was determined as 15 min. For the same compound, the “Duration T1/2 (half-life of hypotensive action)” value in the series on anesthetized rats was greater than 30 min. Further, the “Changes in MBP” value is reported as -7 ± 1% in the series with mean blood pressure (0.5 min.); -11 ± 1% in the series with mean blood pressure (1 min.); -14 ± 1% in the series with mean blood pressure (2 min.); -16 ± 2% in the series on mean blood pressure (5 min.); -19 ± 3% in the series with mean blood pressure (10 min.); -20 ± 3% in the series with mean blood pressure (15 min.). Besides, the “Changes in MBP” value in series [2] (3 mg/kg oral, 30 min.) is reported as -67 ± 13 mmHg; in series [2] (3 mg/kg oral, 60 min.) it was -62 ± 13 mmHg; in [2] (3 mg/kg oral, 90 min.) it was -60 ± 14 mmHg; in series [2] (3 mg/kg oral, 2 hr.), -54 ± 11 mmHg; in series [2] (3 mg/kg oral, 3 hr.), -48 ± 13 mmHg; in series [2] (3 mg/kg oral, 5 hr.), -40 mmHg. In [2] (3 mg/kg oral, 7 hr.), the “Changes in MBP” value was -29 ± 8 mmHg.

Take `COC(=O)C1=C(C)NC(C)=C(C(=O)OCCN(C)Cc2ccccc2)C1c1cccc([N+](=O)[O-])c1F` (stereo not drawn) [(104) hydrochloride, 2-(N-Benzyl-N-methylamino)ethyl methyl 2,6-dimethyl-4-(2-fluoro-3-nitrophenyl)-1,4-dihydropyridine-3,5-dicarboxylate]: the “relative vasodilative activity against papaverine” value was 30 times with rats periphery (dosage 0.1 μg/kg) and 50 times in the series with rats periphery (dosage 1 μg/kg).

For the compound `COC(=O)C1=C(C)NC(C)=C(C(=O)OCCN(C)Cc2ccccc2)C1c1cccc(Cl)c1F` (stereo not drawn) [(106) hydrochloride, 2-(N-Benzyl-N-methylamino)ethyl methyl 2,6-dimethyl-4-(3-chloro-2-fluorophenyl)-1,4-dihydropyridine-3,5-dicarboxylate], the “Changes in MBP” value in [2] (10 mg/kg oral, 30 min.) is -56 ± 6 mmHg; in [2] (10 mg/kg oral, 60 min.), -53 ± 11 mmHg; in series [2] (10 mg/kg oral, 90 min.), -46 ± 10 mmHg; in series [2] (10 mg/kg oral, 2 hr.), -47 ± 11 mmHg; in series [2] (10 mg/kg oral, 3 hr.) it was -39 ± 10 mmHg; in series [2] (10 mg/kg oral, 5 hr.), -37 mmHg. The “Changes in MBP” value in [2] (10 mg/kg oral, 7 hr.) is given as -31 ± 7 mmHg.

On to `COC(=O)C1=C(C)NC(C)=C(C(=O)OCC(C)(C)CN(C)Cc2c(Cl)cccc2Cl)C1c1cccc(Cl)c1F` (stereo not drawn) [(202) hydrochloride, 3-(N-2,6-Dichlorobenzyl-N-methylamino)-2,2-dimethylpropyl methyl 2,6-dimethyl-4-(3-chloro-2-fluorophenyl)-1,4-dihydropyridine-3,5-dicarboxylate], for which the “Changes in mean blood pressure” value was -39 mmHg with conscious rats (after 30 min); -40 mmHg in the series on conscious rats (after 60 min); -38 mmHg in the series with conscious rats (after 90 min); -33 mmHg in the series with conscious rats (after 2 hr); -33 mmHg in the series on conscious rats (after 3 hr); -24 mmHg in the series on conscious rats (after 5 hr). Also, the “Changes in mean blood pressure” value in the series with conscious rats (after 7 hr) was -23 mmHg.

Take `COC(=O)C1=C(C)NC(C)=C(C(=O)OCC(C)(C)CN(C)C)C1c1cccc(Cl)c1F` (stereo not drawn) [reference compound]: the ED20 in the series with anesthetized rat worked out at 0.0807 mg/kg. Besides, in the series on anesthetized rat (dose 100), the “Duration T1/2” value came out at 4.6 min.
